Measurements from paper PMC11271627, “Molecular dynamics-guided optimization of BGM0504 enhances dual-target agonism for combating diabetes and obesity” (Scientific Reports, 2024).
Marks after values point to notes of the source that are not given here.

Experiments:
Human GIPR = biological target: T1, Human GIPR (Homo sapiens, UniProt P48546); test: cAMP accumulation assay, GIPR; assay type: cell-based
T1 construct: expressed in transfected cells; host or cells: CHO cells
T1 sequence (P48546 22-466): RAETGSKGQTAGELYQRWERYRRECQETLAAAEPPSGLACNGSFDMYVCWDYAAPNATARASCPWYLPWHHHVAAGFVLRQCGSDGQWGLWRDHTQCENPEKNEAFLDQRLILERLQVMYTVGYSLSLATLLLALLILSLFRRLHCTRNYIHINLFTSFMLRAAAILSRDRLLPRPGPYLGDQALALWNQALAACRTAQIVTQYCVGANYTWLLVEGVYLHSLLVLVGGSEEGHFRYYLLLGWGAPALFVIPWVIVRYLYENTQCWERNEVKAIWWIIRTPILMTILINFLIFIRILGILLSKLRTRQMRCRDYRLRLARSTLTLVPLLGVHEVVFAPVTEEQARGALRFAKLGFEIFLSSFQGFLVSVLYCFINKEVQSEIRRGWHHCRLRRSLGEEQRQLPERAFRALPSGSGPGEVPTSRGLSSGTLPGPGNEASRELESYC
Method: These cells were then resuspended in 5 mL of the assay buffer, and their concentration was determined using a Vi-Cell Counter. […] Samples were subsequently added to the assay plate along with ECHO555. […] A volume of 10 µL of the cell suspension was added to the assay plate, with a density of 1000 cells/well for GLP-1R testing and 2000 cells/well for GIPR testing. The assay plate was then incubated in a 23°C incubator for 30 minutes. A starting concentration of 800 nM was used to prepare the cAMP standard curve, followed by a 4-fold 10-point serial dilution. These serially diluted cAMP standards were added to the assay plate at a volume of 10 µL/well. Subsequently, 10 µL of the cAMP detection solution was added to the assay plate, and the plate was incubated at room temperature for 1 hour, shielded from direct light. […] For data analysis, each data point’s cAMP level (nM) was calculated using the established cAMP standard curve. The percentage activity for each data point was determined using the formula: % Activity = (cAMP level of testing sample - average cAMP level of low control) / ([…] cAMP level of high control - average cAMP level of […] control) × 100%. Additionally, the ‘log(agonist) vs. response – variable slope’ model in GraphPad Prism 5.0 was used to fit the dose-response curve of each sample and calculate the EC50 value.

[1] = test system: STZ + HFD-induced C57BL/6 mice; test: STZ + HFD-induced diabetes and NASH model in C57BL/6 mice; assay type: in vivo; settings: Mean±SEM; for Ballooning Degeneration score / Inflammatory Cell Infiltration score / NAS (NAFLD Activity Score) / Steatosis score: liver H&E staining; for Fibrosis percentage: liver Sirius red staining, fibrosis area of total section area; for ALT / AST: serum; for ALT: HFD 8 weeks
Method: Both the control and model groups received a subcutaneous injection of the drug vehicle, while only the model group was fed a high-fat diet (HFD). […] This experiment involved selecting 30 SPF grade C57BL/6 pregnant female mice provided by Shanghai Jihui Experimental Animal Breeding Co., Ltd. Newborn male mice underwent subcutaneous injection of STZ (streptozotocin) (100 μg each) within 48 hours after birth and were nursed by their mothers for 4 weeks. During this period, we measured the fasting blood glucose of the mice and selected 65 diabetic male mice with fasting blood glucose values greater than or equal to 12 mmol/L as experimental animals. These mice were fed a HFD for 8 weeks to establish the STZ + HFD-induced diabetes and Nonalcoholic Steatohepatitis (NASH) model in male C57BL/6 mice. Fasting blood sugar was detected after 1 week of HFD feeding in these NASH model mice. Based on fasting blood sugar and body weight, they were randomly divided into the model group, the Tirzepatide-0.15 mg/kg group, the BGM0504-0.05 mg/kg group, the BGM0504-0.15 mg/kg group, and the BGM0504-0.5 mg/kg group. The treatment groups received administration once every 3 days. Additionally, their mothers nursed 10 newborn male mice without STZ injection for 4 weeks and then fed a regular maintenance diet as a control group. After HFD feeding, body weights were measured, and the animals’ food intake was recorded every 3 days until the end of the experiment. Three days after the last dose, animal weights were measured. Following a 6-hour fasting period, all experimental animals were anesthetized with an intraperitoneal injection of sodium pentobarbital. Non-anticoagulated whole blood was collected through the orbital venous plexus, left at room temperature for 30 minutes, and centrifuged at 5000 rpm for 5 minutes. The serum was separated and stored at -80°C for biochemical testing. After thawing the frozen serum samples, serum ALT, AST, TG, TC, HDL-c and LDL-c levels […] were measured using a Hitachi 7060 automatic biochemical detector. Insulin content was determined using an enzyme-linked immunoassay kit. After the dissection procedure, the liver was perfused with pre-cooled saline and then obtained and photographed. Its weight was also measured. Subsequently, the liver was immersed in 10% formalin for fixation and divided into two parts. One part underwent pathological hematoxylin and eosin (H&E) staining. The H&E staining was conducted on paraffin sections of all animal livers following the KCI pathology staining standard operating procedure (SOP). These stained sections were panoramically scanned using a NanoZoomer Digital Pathology scanner. Different fields of view were selected for observation at various magnifications, and the liver lobes in the sections were scored. The other part was subjected to pathological Sirius red (SR) staining. Similarly, SR staining was performed on paraffin sections of the liver following the KCI pathology staining SOP. The stained sections were also panoramically scanned using the NanoZoomer Digital Pathology scanner. Subsequently, VIS7.0 software was utilized to analyze the liver fibrosis area in the panoramically examined SR-stained sections, and the percentage of the liver fibrosis area with the total section area was calculated.

[2] = 0.05 mg/kg once every 3 days, n=11
[3] = 0.15 mg/kg once every 3 days, n=13
[4] = 0.5 mg/kg once every 3 days, n=13

CC[C@H](C)[C@H](NC(=O)[C@H](CC(C)C)NC(=O)[C@H](Cc1c[nH]c2ccccc12)NC(=O)[C@H](CCC(N)=O)NC(=O)[C@@H](NC(=O)[C@H](Cc1ccccc1)NC(=O)[C@H](C)NC(=O)[C@H](CCCCN)NC(=O)[C@H](CCC(N)=O)NC(=O)[C@H](C)NC(=O)[C@@H](NC(=O)[C@H](CCCCN)NC(=O)[C@H](CC(=O)O)NC(=O)[C@H](CC(C)C)NC(=O)C(C)(C)NC(=O)[C@@H](NC(=O)[C@H](CO)NC(=O)[C@H](Cc1ccc(O)cc1)NC(=O)[C@H](CC(=O)O)NC(=O)[C@H](CO)NC(=O)[C@@H](NC(=O)[C@H](Cc1ccccc1)NC(=O)[C@@H](NC(=O)CNC(=O)[C@H](CCC(=O)O)NC(=O)C(C)(C)NC(=O)[C@@H](N)Cc1ccc(O)cc1)[C@@H](C)O)[C@@H](C)O)[C@@H](C)CC)[C@@H](C)CC)C(C)C)C(=O)N[C@@H](C)C(=O)NCC(=O)NCC(=O)N1CCC[C@H]1C(=O)N[C@@H](CO)C(=O)N[C@@H](CO)C(=O)NCC(=O)N[C@@H](C)C(=O)N1CCC[C@H]1C(=O)N1CCC[C@H]1C(=O)N1CCC[C@H]1C(=O)N[C@@H](CO)C(=O)N[C@@H](CCCCNC(=O)COCCOCCOCCNC(=O)COCCOCCOCCNC(=O)CC[C@H](NC(=O)CCCCCCCCCCCCCCCCCCC(=O)O)C(=O)O)C(N)=O [BGM0504]
EC50 (Human GIPR): 0.182 nM
Emax (Human GIPR; CHO): 106 ± 7.9%
HDL-c [1, 2]: 2.30 ± 0.09 mmol/L
LDL-c [1, 2]: 0.56±0.03^b mmol/L
TC [1, 2]: 3.81±0.15^c mmol/L
TG [1, 2]: 1.09±0.20^b mmol/L
HDL-c [1, 3]: 1.83 ± 0.22 mmol/L
LDL-c [1, 3]: 0.65±0.10^c mmol/L
TC [1, 3]: 3.25±0.12^c mmol/L
TG [1, 3]: 0.84±0.12^b mmol/L
HDL-c [1, 4]: 2.13 ± 0.13 mmol/L
LDL-c [1, 4]: 0.62±0.03^c mmol/L
TC [1, 4]: 3.53±0.09^c mmol/L
TG [1, 4]: 0.88±0.14^b mmol/L
Ballooning Degeneration score ([1]; 0.05 mg/kg, n=11): 0.00±0.00
Inflammatory Cell Infiltration score ([1]; 0.05 mg/kg, n=11): 0.91±0.08^a
NAS (NAFLD Activity Score) ([1]; 0.05 mg/kg, n=11): 1.42±0.14^a
Steatosis score ([1]; 0.05 mg/kg, n=11): 0.52±0.12^a
Ballooning Degeneration score ([1]; 0.15 mg/kg, n=13): 0.00±0.00^a
Inflammatory Cell Infiltration score ([1]; 0.15 mg/kg, n=13): 0.90±0.06^a
NAS (NAFLD Activity Score) ([1]; 0.15 mg/kg, n=13): 1.36±0.15^a
Steatosis score ([1]; 0.15 mg/kg, n=13): 0.46±0.13^a
Ballooning Degeneration score ([1]; 0.5 mg/kg, n=13): 0.00±0.00
Inflammatory Cell Infiltration score ([1]; 0.5 mg/kg, n=13): 1.03±0.05^a
NAS (NAFLD Activity Score) ([1]; 0.5 mg/kg, n=13): 1.36±0.10^a
Steatosis score ([1]; 0.5 mg/kg, n=13): 0.33±0.08^a
Fibrosis percentage ([1]; 0.05 mg/kg, n=11): 1.11±0.05^a %
Fibrosis percentage ([1]; 0.15 mg/kg, n=13): 1.10±0.04^b %
Fibrosis percentage ([1]; 0.5 mg/kg, n=13): 1.07±0.05^c %
ALT [1, 2]: 73.97±9.20 U/L
AST [1, 2]: 155.44±10.85 U/L
ALT [1, 3]: 67.58±7.73^a U/L
AST [1, 3]: 152.48±6.56^a U/L
ALT [1, 4]: 58.46±5.38^b U/L
AST [1, 4]: 150.54±6.26^a U/L
